This note sets out measurements from EP2348131A1, “Low levels of cytidine deaminase as a marker for genetic predisposition to develop cancer” (Institut Curie, priority 2010, dated 2011).

Assay [1] relates to BLM-complemented BS cells. Kind of assay: Sister chromatid exchange assay in BLM-complemented BS cells. Format: cell-based, human. The conditions noted are these: BLM-complemented BS cells (BS-GFP-BLM), 25 mM dU or T in culture medium, 2 x 48 h. As for the experimental part:
HeLa cells were used, as previously described (Dutertre S et al., Oncogene 19, 2731-8, 2000). HEK293 cells were cultured as HeLa cells. HeLaV cells and HeLashBLM cells, HEK293V and HEK293shBLM were obtained by transfecting HeLa and HEK cells with an empty pSM2 vector or a pSM2 vector encoding a short hairpin RNA sequence directed against BLM (Open Biosystems, clone V2HS-89234), respectively, using JetPEI reagent (Ozyme) according to the manufacturer's instructions. After 48 hours, selection with 1 to 5 µg/ ml puromycin (Invivogen) was applied for HeLa cells and with 7 to12 µg/ml puromycin for HEK cells. Individual colonies were isolated and maintained in growth medium containing 0.5 µg/ ml puromycin for Hela cells or 10µg/ml puromycin for HEK cells. For siRNAs transient transfection assays, 3-4 x 10^5 cells were seeded in 3 ml of medium in each well of a six-well plate. […]
After treatment, cells were transferred to slides and cultured in the presence of 10 µM 5-bromodeoxyuridine (Sigma) at 37°C, under an atmosphere containing 5% CO2. […] Metaphases were captured with a SONY DXC 930 P camera and SCEs or chromosomal aberrations were analyzed.

In a further assay the test system is BS cells. As to the kind of experiment: Sister chromatid exchange assay in BS cells cultured with deoxynucleosides. The following applies: BS cells (BS-GFP), 25 µM dU or T in culture medium, 2 x 48 h. Format: cell-based, human. The protocol:
The BS SV40-transformed fibroblast cell line GM08505B was cultured as previously described (Dutertre S et al., Oncogene 19, 2731-8, 2000). BS-GFP-BLM cells were obtained by transfecting BS GM08505B cells with an empty EGFP-C1 vector (Clontech, Mountain View, CA), or a EGFP-C1 vector containing the full length BLM cDNA (Eladad et al., Hum Mol Genet 14, 1351-65, 2005), respectively, using JetPEI reagent (Ozyme). After 48 hr, selection with 800 to 1600 µg/ml of G418 (Invitrogen) was applied. Individual colonies were isolated and maintained in DMEM supplemented with 800 µg/ml G418.
All cell lines were cultured in DMEM with 10% fetal calf serum (PAN laboratories) either not dialyzed (Lot P282710) or dialyzed (Lot P5940309) for nucleoside complementation experiments and dNTP assays. […]
After treatment, cells were transferred to slides and cultured in the presence of 10 µM 5-bromodeoxyuridine (Sigma) at 37°C, under an atmosphere containing 5% CO2. After 40 hours, Colchicine (Sigma) was added to a final concentration of 0.1 µg/ ml for 1 hour. Cells were incubated in hypotonic solution (1:6 (vol/vol) FCS-distilled water) and fixed with 3:1 (vol/vol) methanol-acetic acid. […] Metaphases were captured with a SONY DXC 930 P camera and SCEs or chromosomal aberrations were analyzed.

On to `O=c1ccn([C@H]2C[C@H](O)[C@@H](CO)O2)c(=O)[nH]1` [dU, deoxyuridine], for which the SCEs frequency result in assay [1] is “did not affect”; with BS cells, “significant decrease”.

`Cc1cn([C@H]2C[C@H](O)[C@@H](CO)O2)c(=O)[nH]c1=O` [T, thymidine]: the SCEs frequency entry in assay [1] is given as “did not affect”; in the assay on BS cells it was “significant decrease”.
